Laboratory results: the NIST ThermoML archive (doi:10.1021/je4007844)

Settings: Liquid

CCCCCC[n+]1ccn(C)c1.O=S(=O)([N-]S(=O)(=O)C(F)(F)F)C(F)(F)F
Settings	mass density, 372.5 K [kg/m3]	mass density, 373.15 K [kg/m3]	mass density, 392.7 K [kg/m3]	mass density, 412.7 K [kg/m3]	mass density, 432.6 K [kg/m3]	mass density, 452.3 K [kg/m3]	viscosity, 373.15 K [mPa·s]
100 kPa, Bellows volumetry	–	–	1286.8	1269.8	1252.4	1235.6	–
101.33 kPa, Concentric cylinders viscometry	–	–	–	–	–	–	7.434
101.33 kPa, Vibrating tube method	–	1304.7	–	–	–	–	–
10000 kPa, Bellows volumetry	–	–	1296.8	1280.4	1263.7	1247.6	–
20000 kPa, Bellows volumetry	–	–	1306.3	1290.4	1274.3	1258.8	–
30000 kPa, Bellows volumetry	–	–	1315.1	1299.8	1284.2	1269.2	–
40000 kPa, Bellows volumetry	–	–	1323.4	1308.4	1293.3	1278.8	–
50000 kPa, Bellows volumetry	–	–	1331.1	1316.5	1301.7	1287.6	–
60000 kPa, Bellows volumetry	–	–	1338.5	1324.3	1309.7	1295.9	–
70000 kPa, Bellows volumetry	–	–	1345.4	1331.5	1317.3	1303.9	–
80000 kPa, Bellows volumetry	–	–	1352.1	1338.5	1324.5	1311.3	–
90000 kPa, Bellows volumetry	–	–	1358.3	1345	1331.2	1318.3	–
100000 kPa, Bellows volumetry	–	–	1364.5	1351.3	1337.8	1325.1	–
110000 kPa, Bellows volumetry	–	–	1370.3	1357.5	1344.1	1331.8	–
120000 kPa, Bellows volumetry	–	–	1376	1363.2	1350.3	1338	–
130000 kPa, Bellows volumetry	–	–	1381.5	1368.9	1356.1	1344.1	–
140000 kPa, Bellows volumetry	1399.4	–	1386.8	1374.3	1361.9	1349.9	–
150000 kPa, Bellows volumetry	1404.4	–	1391.9	1379.8	1367.3	1355.5	–
160000 kPa, Bellows volumetry	1409.3	–	1397	1384.9	1372.4	1360.8	–
170000 kPa, Bellows volumetry	1414	–	1401.8	1389.9	1377.5	1366.2	–
180000 kPa, Bellows volumetry	1418.5	–	1406.5	1394.7	1382.5	1371.3	–
190000 kPa, Bellows volumetry	1423.1	–	1411.1	1399.4	1387.4	1376.4	–
200000 kPa, Bellows volumetry	1427.4	–	1415.7	1404	1392.2	1381.2	–
